From patent US20250345454A1, “CHEMOTHERAPEUTIC PACLITAXEL BASED MICELLULAR NANOPARTICLES” (Peptinovo Biopharma Inc., priority 2024, published 2025)
Where no end group is shown, it is not given here. [ ]: non-standard residue; d: D form. Aib = CC(C)(N)C(=O)O

Assays:
SK-OV-3 cells = experiment: SK-OV-3 growth inhibition, 72 hr, MTT assay; type: cell-based, human; conditions: for SK-OV-3 growth inhibition, comparison of anchor lipids: conjugates tested as C-m-HDLs prepared by solvent lyophilization, FIGS. 12A and 12B; for SK-OV-3 growth inhibition, comparison of peptides: tested as C-m-HDLs loaded with conjugate 20 made with the named peptide, FIG. 13
Protocol: In this Example, the mole portions of components in the C-m-HDLs prepared by solvent lyophilization were POPC: egg SM: peptide: conjugate 5.6:2.4:2:1. 20 mM stock solutions of POPC and of egg SM were prepared in tert-butyl alcohol: water (8:2 v/v). Peptide SEQ ID NO: 25 (acetate counter ion) was dissolved in tert-butyl alcohol/water/acetic acid (80:20:7 v/v) to obtain a 10 mM peptide solution. Conjugates 20 and 30 were separately dissolved in tert-butyl alcohol: water (95:5) to a final concentration of 10 mM.
For C-m-HDL preparation, 2.8 mL of 20 mM POPC, 1.2 mL of 20 mM egg SM, 2 mL of 10 mM peptide, 1 mL of 10 mM conjugate, and 0.3 mL acetic acid were combined in a 20 mL glass vial. The combined solution was frozen at ≥−70° C. for ≥1 hr. The frozen vial was placed in the chamber of a lyophilizer set at a shelf temperature of −20° C. A vacuum between 100 to 150 mTorr was applied for >20 hr. The shelf temperature was raised to −10° C. and the vacuum was continued for >15 hr. The shelf temperature was then raised to 20° C. and the vacuum continued for 24 hr. The dried cake was dissolved in PBS to obtain C-m-HDLs. The uniformity of the C-m-HDLs was evaluated by SEC (Acclaim™ SEC-1000, 300 mm×4.6 mm column, 0.3 mL/min PBS mobile phase, 210 nm and 280 nm UV detection) and by dynamic light scattering. The phospholipid content was established with a commercially available, enzyme-based, colorimetric assay kit. Peptide and conjugate content were established by HPLC.
Two C-m-HDLs were prepared as above, containing either Conjugate 20 or Conjugate 30 were then tested for their growth inhibition activity against SK-OV-3 cells (ATCC). SK-OV-3 cells were grown in McCoy's-5A media supplemented with 10% fetal bovine serum and maintained in a 37° C. incubator under a 5% CO2 atmosphere. To assess growth inhibition, the growth medium of cells grown in 96-well plates was supplemented with various concentrations of C-m-HDL (cmpd 20), C-m-HDL (compd 30) or paclitaxel from a DMSO stock solution. The 96-well plates were incubated for 72 hr. The relative amount of live cells in each of the wells after 72 hr was determined with the MTT assay. The concentrations of test articles causing 50% growth inhibition (GIso) were obtained by performing a non-linear fit of the MTT results to a 4-parmeter logistic function. The results are plotted in FIG. 11.

Sprague-Dawley rats = experiment: Adrenal gland functionality in rats after dosing (ACTH challenge, plasma corticosterone); type: in vivo; conditions: 4 mg/kg on Days 1, 4 and 7; ACTH challenge Day 11; paclitaxel intraperitoneal, C-m-HDL intravenous; FIG. 10
Protocol: A paclitaxel stock solution was prepared by dissolving paclitaxel in 1:1 (v/v) Cremophor EL/ethanol (95%) to a final paclitaxel concentration of […] (C-E paclitaxel solution). Next, a paclitaxel solution suitable for dosing was prepared by combining one volume of the C-E paclitaxel solution with 3 volumes of 0.9 weight % NaCl. This solution is designated as “Control”.
C-m-HDL (cmpd 20) was prepared as per Example 12.
The in vivo study was conducted in rats in accordance with the current guidelines for animal welfare (Guide for the Care and Use of Laboratory Animals, 8th Ed., 2011). The procedures used in the study were reviewed and approved by the Institutional Animal Care and Use Committee.
Eighteen (18) female Sprague-Dawley rats were randomly assigned to 3 groups of 6 animals each. All animals were lightly anesthetized using isoflurane and dosed intraperitoneally on Days 1, 4, and 7 with paclitaxel at 4 mg/kg in a dose volume of 1.5 mL/kg, or intravenously with C-m-HDL (cmpd 20) at 4 mg/kg or vehicle (saline) via the tail vein using a dose volume of 1.5 mL/kg. Group 1 received saline, Group 2 received paclitaxel, and Group 3 received C-m-HDL (cmpd 20). On Day 11, rats in each group were lightly anesthetized using isoflurane within their home cage to minimize potential stress responses. […] Plasma corticosterone content was determined with a commercially available ELISA kit.

## CC(=O)O[C@H]1C(=O)[C@@]2(C)[C@H]([C@H](OC(=O)c3ccccc3)[C@]3(O)C[C@H](OC(=O)[C@H](OC(=O)Oc4cc(C)c5c(c4)CC[C@@](C)(CC/C=C(\C)CC/C=C(\C)CCC=C(C)C)O5)[C@@H](NC(=O)c4ccccc4)c4ccccc4)C(C)=C1C3(C)C)[C@]1(OC(C)=O)CO[C@@H]1C[C@@H]2O [Conjugate 20, paclitaxel-delta-tocotrienol conjugate]
SK-OV-3 cells
  SK-OV-3 growth inhibition, comparison of anchor lipids: equivalent results
SK-OV-3 cells; listed as paclitaxel-delta-tocotrienol
  SK-OV-3 growth inhibition, comparison of anchor lipids: essentially equivalent

## CC(=O)O[C@H]1C(=O)[C@@]2(C)[C@H]([C@H](OC(=O)c3ccccc3)[C@]3(O)C[C@H](OC(=O)[C@H](O)[C@@H](NC(=O)c4ccccc4)c4ccccc4)C(C)=C1C3(C)C)[C@]1(OC(C)=O)CO[C@@H]1C[C@@H]2O [paclitaxel]
Sprague-Dawley rats
  adrenal function / adrenal toxicity: lack of adrenal toxicity

## DVFQKLXELFNQLLEKWKQV (DVFQKL[Aib]ELFNQLLEKWKQV) [SEQ ID NO: 25, amphiphilic, alpha-helical peptide used to prepare C-m-HDLs]
SK-OV-3 cells
  SK-OV-3 growth inhibition, comparison of peptides: substantially the same

## DVFQKLXELFNQLXEKWKQV (DVFQKL[Aib]ELFNQL[Aib]EKWKQV) [SEQ ID NO: 35, amphiphilic, alpha-helical peptide used to prepare C-m-HDLs]
SK-OV-3 cells
  SK-OV-3 growth inhibition, comparison of peptides: substantially the same
